Data published in US20230406873A1, “PROBES, SYSTEMS, AND METHODS FOR MAGNETIC RESONANCE PH SENSING” (The General Hospital Corporation, priority 2020, published 2023).
Read-outs that look alike come from different tables or passages of the source. Marks after values point to notes of the source that are not given here.

Legend:
[1] = pH-potentiometry of 1:1 ligand and Fe3+ solution (complex protonation constants, speciation); format: physicochemical; conditions: Fe^3+ complex, 0.1 M NaCl, 310 K; for log KML/ML(OH): 7.0 mM each Fe and ligand, [ML]/[ML(OH)][H], not an absolute protonation constant; for log KML: footnote d only: pH-potentiometry; for log KHML: KHML = [HML]/[H][ML]
Description: (§1) pH-potentiometric measurements: pH-potentiometric measurements were performed using an Orion ROSS Ultra pH electrode and temperature-controlled reaction vessel held at 310 K. A standardized solution of 0.10 M NaOH was used as the titrant. The electrode was calibrated prior to each titration by titrating a standardized HCl(aq) solution at ionic strength 0.10 using NaCl as the inert electrolyte with the standardized NaOH titrant. A working slope and intercept were generated by plotting mV as a function of calculated pH, which enabled direct conversion of electrode readings to [H^+] during sample titrations. pH values recorded during the titrations refers to hydrogen ion concentration. All titration samples were prepared in solutions of 0.10 M NaCl in distilled, de-ionized water. Ligand solutions were prepared by dissolving a weighed quantity into the electrolyte and concentration was calculated from the effective weight of the ligand. Moles ligand present in titrand was also confirmed by measuring the mol added NaOH required to span each inflection point. Solutions of 1:1 ligand: Fe were prepared by adding an appropriate volume of standardized FeCl3 in 0.088 M HCl solution to a weighed quantity of ligand, the solutions were then adjusted with water and 1 M NaCl to ionic strength 0.10. The data was analyzed using the Hyperquad2013 software package.

[2] = pH-potentiometry of ligand (protonation constants); format: physicochemical; conditions: 0.1 M NaCl, 310 K; for log KLH: KLHn = [HnL]/[H][Hn-1L]
Description: as §1

[3] = Fe^3+ complexes of reference ligands; method and conditions not given; cited from earlier work
[4] = Dimerization constant from concentration dependence on extinction coefficient at 342 nm (UV-vis); format: physicochemical; conditions: Fe^3+ complex, pH 9.0, 310 K
Description: UV-vis spectra were recorded on a SpectraMax M2 spectrophotometer using quartz cuvettes with a 1 cm path length. Extinction coefficients recorded at pH 9 (ε, M^−1cm^−1) were estimated by dividing absorbance by sample Fe concentration.

[5] = Dimerization constant from concentration dependence on relaxivity at pH 9.0; format: physicochemical; conditions: Fe^3+ complex, pH 9.0, 310 K
Description: (§2) The dissociation constant for (ML)2O formation was estimated from the concentration dependence on r1 at pH 9.0, under these experimental conditions, complexes speciation is comprised near entirely by ML(OH) and the corresponding (ML)2O dimer and r1 can be expressed as Eq 7A, […]
r1=r1^monαmon+r1^dimαdim (Eq 7A) where r1^mon and r1^dim are the r1 corresponding to ML(OH) and (ML)2O and αmon and αdim are the fraction of total [Fe] comprised by each.
The concentration dependence on monomer vs. dimer speciation is governed by the equilibrium constant (Kd) in Eq 7B, Eq 7B can be rearranged to the corresponding quadratic equation, Eq 7C, and concentration of dimer solved by Eq 7D, Thus, the concentration dependence on ri was fit to a 3 parameter fit based on Eqs 7A-7D, yielding estimates of r1^mon, r1^dim, and Kd.

[6] = Estimation of log K (formation constant) from EDTA competition assay, HPLC; format: physicochemical; conditions: Fe^3+ complex; estimated from Kcomp using EDTA challenge; KML = [ML]/[M][L]
Description: The [Fe(PyCy2AI)]^+ formation constant was estimated from direct competition with EDTA at pH 4.4, I=0.1 M KNO3, and 310 K. Product distribution at equilibrium was estimated from an HPLC analysis of the reaction mixture (HPLC method A1). The equilibrium concentrations of [Fe(PyCy2AI)]^+ were quantified according to a linear calibration plot of HPLC peak area as a function of chelate concentration. An equilibrium constant, Keq, was estimated using Eq 4A,
The conditional (pH 4.4) formation constant, Kcond, was estimated from Keq and the previously (Kcond of Fe-EDTA measured under identical conditions using Eq 4B,
Under HPLC experimental conditions that cannot distinguish between chemical forms of the complex, the conditional stability constant can be estimated from the concentration coefficient of the ligand “L”, or PyCy2AI^2−, species (αL), which is known from the ligand pH-titration data. The formation constant was thus estimated using Eq 4C,
The HPLC assay conditions were chosen specifically to minimize contributions from ‘side products’ such as [Fe(HPyCy2AI)]^2+, [Fe(PyC2AI)(OH)], or [Fe(HEDTA)], which together we estimate to contribute <5% and <2% of total PyCy2AI and EDTA speciation.

[7] = Relaxivity measurements (r1) of Fe-PyCy2AI species; format: physicochemical; conditions: Fe^3+ complex; estimated from pH dependence on r1
Description: Relaxivity measurements were performed on a Bruker mq60 Minispec, 1.41 T, and on an 11.7 T Varian NMR spectrometer at 37° C. Longitudinal (T1) relaxation times were measured via an inversion recovery experiment using 10 inversion times of duration ranging between 0.05 s T1 and 5 s T1. Transverse (T2) relaxation times were measured using a Carl-Purcell-Meiboom-Gill spin-echo experiment. Under experimental conditions where 1/T1,2 increased linearly with increasing [Fe], relaxivity (r2i=1,2) was determined from the slope of a plot of 1/Ti(i=1,2) vs. [Fe] for at least 4 concentrations. Under conditions where non-negligible dimerization occurs, plots of 1/T1,2 vs. [Fe] are non-linear and r1,2 were estimated by dividing the Fe induced increase in 1/T1,2 by [Fe]. […]
as §2
Magnetic resonance imaging was performed using a Bruker Biospec 4.7 T system. […] T1 values for each compound was determined using a 2D rapid acquisition refocused echo (RARE) sequence of flip angle (FA)=90°, echo time (TE)=20 ms, repetition time (TR) ranging from 146-7500 ms, acquisition matrix=256×128, field of view=64×32 mm, slice thickness 1 mm. […]

SMILES: O=C(O)CN(CC(=O)O)C1CCCCC1N(CC(=O)O)CC(=O)O (stereo not shown) [CyDTA, 1,2-Cyclohexylenedinitrilotetraacetic acid]
- log KML/ML(OH) [1]: 9.57
- log KML ([1]; 7.0 mM ligand and Fe^3+): 29.1
- log KLH2 [2]: 6.12
- log KLH3 [2]: 3.49
- log KLH4 [2]: 2.40
- log KLH [2]: 12.3
- Dimerization Ka [3]: 0.012 mM⁻¹

SMILES: O=C(O)CN(CCO)CCN(CC(=O)O)CC(=O)O [HEDTA, Hydroxyethylethylenediaminetriacetic acid]
- Dimerization Ka [3]: 0.24 mM⁻¹

SMILES: O=C(O)CN(Cc1c[nH]cn1)C1CCCC[C@@H]1N(CC(=O)O)Cc1ccccn1 (mixture of isomers) [PyCy2AI, (±)-trans-N-((1H-imidazol-4-yl)methyl)-N′-(picolyl)-N,N′-cyclohexane-1,2-diamine diacetate bis-trifluoroacetic acid]
- Dimerization Ka [4]: 6.2 ± 1.5 mM⁻¹
- log KML/ML(OH) [1]: 6.46 ± 0.03
- log KHML ([1]; 7.0 mM ligand and Fe^3+): 2.91 ± 0.05
- log KMLH-1/MLH-2 ([1]; 7.0 mM ligand and Fe^3+, [MLH-1]/[MLH-2][H]): 10.24 ± 0.05
- Dimerization Ka ([5]; 1.4 T): 2.3 ± 0.57 mM⁻¹
- Dimerization Ka ([5]; 4.7 T): 5.1 ± 2.7 mM⁻¹
- Dimerization Ka ([5]; 11.7 T): 7.4 ± 5.5 mM⁻¹
- log KML [6]: 23.9 ± 0.03^c
- log KLH2 [2]: 6.44 ± 0.03
- log KLH3 [2]: 4.23 ± 0.033
- log KLH4 [2]: 2.27 ± 0.05
- log KLH [2]: 10.62 ± 0.04

SMILES: O=C(O)CN(CC(=O)O)[C@H]1CCCC[C@@H]1N(CC(=O)O)Cc1ccccn1 [PyC3A]
- log KML/ML(OH) [7]: 8.50^g
- log KML [6]: 26.0^c
- log KLH2 [2]: 6.39
- log KLH3 [2]: 3.13
- log KLH [2]: 10.16

SMILES: CC(CN(CC(=O)O)CC(=O)O)N(CC(=O)O)CC(=O)O (stereo not shown) [PDTA, N,N,N′,N′-1,2-propylenediaminetetracetic acid]
- Dimerization Ka [3]: 0.19 mM⁻¹

SMILES: O=C(O)CN(CCN(CC(=O)O)CC(=O)O)CC(=O)O [EDTA, Ethylenediaminetetraacetic acid]
- log KML/ML(OH) [1]: 7.37
- log KHML ([1]; 7.0 mM ligand and Fe^3+): 1.3
- log KML ([1]; 7.0 mM ligand and Fe^3+): 25.1
- log KLH2 [2]: 6.13
- log KLH3 [2]: 2.69
- log KLH4 [2]: 2.00
- log KLH [2]: 10.19
- Dimerization Ka [3]: 0.44 mM⁻¹
